Test results: paper PMC3585277, “The C-Terminal Region Mesd Peptide Mimics Full-Length Mesd and Acts as an Inhibitor of Wnt/β-Catenin Signaling in Cancer Cells” (PLoS ONE, 2013)

What was measured:
HS578T cells [1] = assay: Cell viability, Cell Titer Glo Assay, HS578T cells; type: cell-based, human
Protocol: (§1) Cell viability was measured in 96-well plates by the Cell Titer Glo Assay (Promega), which is a luminescent assay that is an indicator of live cells as a function of metabolic activity and ATP content.

PC-3 cells [2] = assay: Cell proliferation assay (trypan blue exclusion), PC-3 cells; type: cell-based, human; details: PC-3, RPMI-1640 2% FBS, 10 days; mMesd 2 µM, hMesd (160–197) 4 µM, control peptide 4 µM; n = 3
Protocol: (§2) Cells were seeded into 6-well plates at a density of 10000 cells/well. RPMI-1640 or DMEM medium containing 2% FBS was used as assay media. After 16 h incubation, the cells were treated with Mesd or its peptide for 10 days. Media were changed every other day. At the end of the experiment, cells were harvested and counted using the trypan blue exclusion assay.

Wnt/β-catenin signaling [3] = assay: Western blot / GST-E-cadherin binding assay of Wnt/β-catenin signaling markers, PC-3 cells; type: cell-based, human
Protocol: (§3) Cells in 6-well plates were lysed in 0.5 ml of lysis buffer (phosphate-buffered saline containing 1% Triton X-100 and 1 mM PMSF) at 4°C for 10 min. Equal quantities of protein were subjected to SDS-PAGE under reducing conditions. Following transfer to immobilon-P transfer membrane, successive incubations with anti-HA, anti-Wnt10b, anti-β-catenin, anti-OPG, anti-phosphorylated-LRP6, anti-LRP6, anti-Axin2, anti-Cyclin D1 or anti-actin, and horseradish peroxidase-conjugated secondary antibody were carried out for 60–120 min at room temperature. The immunoreactive proteins were then detected using the ECL system. Films showing immunoreactive bands were scanned by Kodak Digital Science DC120 Zoom Digital Camera.
(§4) The GST-E-cadherin binding assay was carried out exactly as previously described (9). Uncomplexed cytosolic free β-catenin present in 100 µg of total cell lysate was subjected to SDS-PAGE and detected using the monoclonal antibody to β-catenin.

Wnt/β-catenin signaling [4] = assay: Super8XTOPFlash luciferase reporter assay, PC-3 cells; type: cell-based, human; details: 24 h treatment
Protocol: (§5) Cells were plated into 24-well plates. After overnight culture, the cells were transiently transfected with the TOPFlash or Super8XTOPFlash luciferase construct, β-galactosidase-expressing vector, and pcDNA3.1C-Myc-hLRP5, pCS-Myc-hLRP6 or control vector. After 24 h incubation, cells were treated with Mesd, Mesd peptide, Rspo1 and Wnt3A CM. Cells were then lysed 24 h later and both luciferase and β-galactosidase activities were determined. The luciferase activity was normalized to the β-galactosidase activity.

Wnt/β-catenin signaling [5] = assay: Super8XTOPFlash luciferase reporter assay, HEK293 cells (Figure S1, S2); type: cell-based, human; details: 24 h, peptide 8 µM in Figure S1
Protocol: as §5
Supplementary file pone.0058102.s001.tif: Figure S1 Human Mesd C-terminal region peptide blocks Wnt/β-catenin signaling induced by LRP6, Wnt3A and Rspo1 in HEK293 cells. […] The luciferase activity was then measured 24 h later with normalization to the activity of the β-galactosidase. […]
Supplementary file pone.0058102.s002.tif: Figure S2 Mesd blocks Wnt1- or Wnt10b-induced Wnt/β-catenin signaling in HEK293 cells. […] The luciferase activity was then measured 24 h later with normalization to the activity of the β-galactosidase. […] The levels of cytosolic free β-catenin, and total cellular Wnt1, Wnt10b, β-catenin, LRP6, Axin2, cyclin D1 and phosphorylated LRP6 were then analyzed by Western blotting. […]

Wnt/β-catenin signaling [6] = assay: Western blot / GST-E-cadherin binding assay of Wnt/β-catenin signaling markers, HS578T cells; type: cell-based, human; details: 24 h treatment
Protocol: as §3, §4

Wnt/β-catenin signaling [7] = assay: Super8XTOPFlash luciferase reporter assay, HS578T cells; type: cell-based, human; details: 24 h treatment
Protocol: as §5

HS578T cells [8] = assay: Cell proliferation assay (trypan blue exclusion), HS578T cells; type: cell-based, human; details: DMEM 2% FBS, 10 days, mMesd 2 µM, hMesd (160–197) 4 µM, control peptide 4 µM, n = 3
Protocol: as §2

PC-3 cells [9] = assay: Cell viability, Cell Titer Glo Assay, PC-3 cells; type: cell-based, human; details: Mesd 2 µM or hMesd (160–197) 2 µM with Adriamycin 0.5 µM, 2 days after pre-treatment
Protocol: as §1

PC-3 cells [10] = assay: BrdU proliferation ELISA, PC-3 cells; type: cell-based, human; details: PC-3, peptide 2 µM, 7 days in 2% FBS then 2 days in 10% FBS; n = 6
Protocol: (§6) BrdU incorporation into proliferating cells was analyzed by a cell proliferation ELISA BrdU kit (colorimetric, Roche) according to the manufacturer's instructions.

MDA-MB-231 tumor = details: cited from earlier work
HS578T cells [11] = assay: BrdU proliferation ELISA, HS578T cells; type: cell-based, human; details: peptide 2 µM, 7 days in 2% FBS then 2 days in 10% FBS, n = 6
Protocol: as §6

LRP5 = assay: 125I-Mesd ligand binding assay, LRP5-transfected ldl-7 cells; details: for block of Mesd protein binding to LRP5 at the cell surface / concentration at which inhibitory ability on Mesd binding was displayed: 4 h at 4°C; for concentration at which inhibitory ability on Mesd binding was displayed / inhibitory concentration relative to that required for mMesd (155–191): LRP5-expressing cells
Protocol: (§7) Ligand binding assay was carried out exactly as previously described. Cells (2×10^5) were seeded into 12-well dishes 1 day prior to assay. Ligand-binding buffer (minimal Eagle's medium containing 0.6% BSA with a different concentration of radioligand, 0.6 ml/well) was added to cell monolayers, in the absence or the presence of unlabeled Mesd or its peptide, followed by incubation for 4 h at 4°C. Thereafter, overlying buffer containing unbound ligand was removed, and cell monolayers were washed and lysed in low-SDS lysis buffer (62.5 mM Tris-HCl pH 6.8, 0.2% SDS, 10% v/glycerol) and counted.

LRP6 = assay: 125I-Mesd ligand binding assay, LRP6-transduced HT1080 cells; design: species or system human; details: for block of Mesd protein binding to LRP6 at the cell surface / concentration at which inhibitory ability on Mesd binding was displayed: 125I-Mesd 5 nM, 4 h at 4°C; for block of Mesd protein binding to LRP6 at the cell surface: LRP6-transduced HT1080 cells; for concentration at which inhibitory ability on Mesd binding was displayed / inhibitory concentration relative to that required for mMesd (155–191): LRP6-expressing cells
Protocol: as §7

Wnt/β-catenin signaling [12] = assay: TOPFlash luciferase reporter assay, LRP6-transfected HEK293 cells; type: cell-based, human; details: Wnt3A CM 5%, Rspo1 40 ng/ml, mMesd 2 µM, peptide at indicated concentrations, 24 h, normalized to β-galactosidase
Protocol: as §5

Wnt/β-catenin signaling [13] = assay: TOPFlash luciferase reporter assay, LRP5-transfected HEK293 cells; type: cell-based, human; details: Wnt3A CM 5%, Rspo1 40 ng/ml, mMesd 2 µM, peptide at indicated concentrations, 24 h, normalized to β-galactosidase
Protocol: as §5

LRP6 phosphorylation = assay: Western blot of phosphorylated LRP6 in C2C12 cells; type: cell-based, mouse; details: C2C12, Wnt3A CM 5%, 6 h; mMesd 0.5 µM, peptide at indicated concentrations
Protocol: as §3

OPG expression = assay: Western blot of OPG expression in C2C12 cells; type: cell-based, mouse; details: 48 h, mMesd 0.5 µM
Protocol: as §3

[14] = 125I-Mesd 5 nM, peptides at indicated concentrations, LRP5-transfected ldl-7 cells, Figure 1C
[15] = peptides at indicated concentrations, Figure 1C

Molecule: COc1cccc2c1C(=O)c1c(O)c3c(c(O)c1C2=O)C[C@@](O)(C(=O)CO)C[C@@H]3O[C@H]1C[C@H](N)[C@H](O)[C@H](C)O1 [Adriamycin, reference compound]
- inhibition of cell viability (HS578T cells [1]; single agent: Mesd protein 2 µM or Adriamycin 0.5 µM, Mesd 4 days pre-treatment, then 2 days, n = 4): 69%

Molecule: KGGGSKEKNKTKQDKGKKKKEGDLKSRSSKEENRAGNK [hMesd (160–197), human Mesd C-terminal region peptide, corresponding to mMesd (155–191)]
- cell proliferation (PC-3 cells [2]): displayed inhibitory effect
- levels of cytosolic free β-catenin, LRP6 phosphorylation, Axin2 and cyclin D1 (Wnt/β-catenin signaling [3]; PC-3, 24 h treatment): greatly decreased
- levels of cytosolic free β-catenin, LRP6 phosphorylation, Axin2 and cyclin D1 (Wnt/β-catenin signaling [3]; Wnt1-expressing PC-3, 24 h treatment): greatly decreased
- Wnt reporter luciferase activity (Wnt/β-catenin signaling [4]; PC-3, endogenous signaling, indicated concentrations): significantly repressed
- Wnt reporter luciferase activity induced by Wnt1 (Wnt/β-catenin signaling [4]; PC-3 transfected with Wnt1 plasmid): significantly repress
- Wnt/β-catenin signaling induced by LRP6, Wnt3A, Rspo1, Wnt1 and Wnt10b (Wnt/β-catenin signaling [5]): displayed inhibitory effects
- levels of cytosolic free β-catenin, LRP6 phosphorylation, Axin2 and cyclin D1 (Wnt/β-catenin signaling [6]; HS578T): greatly decreased
- levels of cytosolic free β-catenin, LRP6 phosphorylation, Axin2 and cyclin D1 (Wnt/β-catenin signaling [6]; Wnt1-expressing HS578T): greatly decreased
- Adriamycin-induced cytotoxicity (HS578T cells [1]; Mesd 2 µM or hMesd (160–197) 2 µM with Adriamycin 0.5 µM, 2 days after pre-treatment): potentiate
- Wnt reporter luciferase activity induced by Wnt1 (Wnt/β-catenin signaling [7]; HS578T transfected with Wnt1 plasmid): significantly repress
- Wnt reporter luciferase activity (Wnt/β-catenin signaling [7]; HS578T, endogenous signaling, indicated concentrations): significantly repressed
- cell proliferation (HS578T cells [8]): displayed inhibitory effect
- Adriamycin-induced cytotoxicity (PC-3 cells [9]): potentiate

Molecule: Mesd C-terminal region peptide: generic wording; in Figure 7B it is hMesd (160–197); in cited work (ref 13) the peptide is not specified (KGGGSKEKNKTKQDKGKKKKEGDLKSRSSKEENRAGNK)
- BrdU incorporation (PC-3 cells [10]): decreased BrdU incorporation
- MDA-MB-231 tumor growth (MDA-MB-231 tumor): suppressed
- BrdU incorporation (HS578T cells [11]): decreased BrdU incorporation

Molecule: mMesd (155–164): Mesd peptide based on the mouse Mesd C-terminal region sequence
- block of Mesd protein binding to LRP5 at the cell surface (LRP5; [14]): unable to block
- block of Mesd protein binding to LRP6 at the cell surface (LRP6; [15]): unable to block

Molecule: mMesd (155–173): Mesd peptide based on the mouse Mesd C-terminal region sequence (GSYAWEIKDFLVSQDRCAE; UniProt Q9ERE7 155-173, looked up, fragment)
- block of Mesd protein binding to LRP5 at the cell surface (LRP5; [14]): inhibition
- block of Mesd protein binding to LRP6 at the cell surface (LRP6; [15]): inhibition

Molecule: mMesd (155–191): shorter mouse Mesd C-terminal region peptide lacking 9 conserved terminal residues of mMesd (150–195) (GSYAWEIKDFLVSQDRCAEVTLEGQMYPGKGGGSKEK; UniProt Q9ERE7 155-191, looked up, fragment)
- block of Mesd protein binding to LRP5 at the cell surface (LRP5; 125I-Mesd binding assay with LRP5-expressing cells): blocked
- TOPFlash activity induced by LRP6, LRP6 plus Wnt3A, LRP6 plus Rspo1 (Wnt/β-catenin signaling [12]): blocked
- TOPFlash activity induced by LRP5, LRP5 plus Wnt3A, LRP5 plus Rspo1 (Wnt/β-catenin signaling [13]): blocked
- block of Mesd protein binding to LRP6 at the cell surface (LRP6; 500 nM peptide, Figure 1B, triple determinations): blocked
- Wnt3A-induced endogenous LRP6 phosphorylation (LRP6 phosphorylation): able to suppress
- OPG expression induced by Rspo1 plus Wnt3A (OPG expression; C2C12, Rspo1 20 ng/ml, Wnt3A CM 2%, mMesd (155–191) 2 µM): repressed
- Wnt3A-induced OPG expression (OPG expression; C2C12, Wnt3A CM 5%, peptide at indicated concentrations): able to suppress

Molecule: mMesd (160–169): Mesd peptide based on the mouse Mesd C-terminal region sequence (EIKDFLVSQD; UniProt Q9ERE7 160-169, looked up, fragment)
- concentration at which inhibitory ability on Mesd binding was displayed (LRP5; 125I-Mesd 5 nM): 50 µM
- inhibitory concentration relative to that required for mMesd (155–191) (LRP5): 100 times
- concentration at which inhibitory ability on Mesd binding was displayed (LRP6): 50 µM
- inhibitory concentration relative to that required for mMesd (155–191) (LRP6): 100 times

Molecule: mMesd (165–182): Mesd peptide based on the mouse Mesd C-terminal region sequence (LVSQDRCAEVTLEGQMYP; UniProt Q9ERE7 165-182, looked up, fragment)
- block of Mesd protein binding to LRP5 at the cell surface (LRP5; [14]): unable to block
- block of Mesd protein binding to LRP6 at the cell surface (LRP6; [15]): unable to block

Molecule: mMesd (174–191): Mesd peptide based on the mouse Mesd C-terminal region sequence (VTLEGQMYPGKGGGSKEK; UniProt Q9ERE7 174-191, looked up, fragment)
- block of Mesd protein binding to LRP5 at the cell surface (LRP5; [14]): inhibition
- block of Mesd protein binding to LRP6 at the cell surface (LRP6; [15]): inhibition

Molecule: mMesd (183–191): Mesd peptide based on the mouse Mesd C-terminal region sequence (GKGGGSKEK; UniProt Q9ERE7 183-191, looked up, fragment)
- concentration at which inhibitory ability on Mesd binding was displayed (LRP5; 125I-Mesd 5 nM): 50 µM
- inhibitory concentration relative to that required for mMesd (155–191) (LRP5): 100 times
- concentration at which inhibitory ability on Mesd binding was displayed (LRP6): 50 µM
- inhibitory concentration relative to that required for mMesd (155–191) (LRP6): 100 times
